Measured values taken from patent US8324211B2, “Inhibitors of bruton's tyrosine kinase” (Roche Palo Alto LLC, priority 2008, dated 2012).

Molecular target: T1, Btk enzyme (His-tagged, full-length) (Homo sapiens, UniProt Q06187)
T1 construct: 5-10 nM Btk enzyme (His-tagged, full-length); His
Assay: Bruton's Tyrosine Kinase (Btk) Inhibition Assay (33P filtration capture)
Type: biochemical
Details: 100 μM ATP, 30 μM peptide substrate, 30 min at 30° C.
Description: Bruton's Tyrosine Kinase (Btk) Inhibition Assay
The assay is a capture of radioactive ^33P phosphorylated product through filtration. The interactions of Btk, biotinylated SH2 peptide substrate (Src homology), and ATP lead to phosphorylation of the peptide substrate. Biotinylated product is bound streptavidin sepharose beads. All bound, radiolabeled products are detected by scintillation counter.
Plates assayed are 96-well polypropylene (Greiner) and 96-well 1.2 μm hydrophilic PVDF filter plates (Millipore). Concentrations reported here are final assay concentrations: 10-100 μM compounds in DMSO (Burdick and Jackson), 5-10 nM Btk enzyme (His-tagged, full-length), 30 μM peptide substrate (Biotin-Aca-AAAEEIYGEI-NH2), 100 μM ATP (Sigma), 8 mM imidazole (Sigma, pH 7.2), 8 mM glycerol-2-phosphate (Sigma), 200 μM EGTA (Roche Diagnostics), 1 mM MnCl2 (Sigma), 20 mM MgCl2 (Sigma), 0.1 mg/ml BSA (Sigma), 2 mM DTT (Sigma), 1 μCi^33P ATP (Amersham), 20% streptavidin sepharose beads (Amersham), 50 mM EDTA (Gibco), 2 M NaCl (Gibco), 2 M NaCl w/1% phosphoric acid (Gibco), microscint-20 (Perkin Elmer).
IC50 determinations are calculated from 10 data points per compound utilizing data produced from a standard 96-well plate assay template. One control compound and seven unknown inhibitors were tested on each plate and each plate was run twice. Typically, compounds were diluted in half-log starting at 100 μM and ending at 3 nM.The control compound was staurosporine. Background was counted in the absence of peptide substrate. Total activity was determined in the presence of peptide substrate. The following protocol was used to determine Btk inhibition. • 1) Sample preparation: The test compounds were diluted at half-log increments in assay buffer (imidazole, glycerol-2-phosphate, EGTA, MnCl2, MgCl2, BSA). • 2) Bead preparation […]

T1 sequence (Q06187 whole entry): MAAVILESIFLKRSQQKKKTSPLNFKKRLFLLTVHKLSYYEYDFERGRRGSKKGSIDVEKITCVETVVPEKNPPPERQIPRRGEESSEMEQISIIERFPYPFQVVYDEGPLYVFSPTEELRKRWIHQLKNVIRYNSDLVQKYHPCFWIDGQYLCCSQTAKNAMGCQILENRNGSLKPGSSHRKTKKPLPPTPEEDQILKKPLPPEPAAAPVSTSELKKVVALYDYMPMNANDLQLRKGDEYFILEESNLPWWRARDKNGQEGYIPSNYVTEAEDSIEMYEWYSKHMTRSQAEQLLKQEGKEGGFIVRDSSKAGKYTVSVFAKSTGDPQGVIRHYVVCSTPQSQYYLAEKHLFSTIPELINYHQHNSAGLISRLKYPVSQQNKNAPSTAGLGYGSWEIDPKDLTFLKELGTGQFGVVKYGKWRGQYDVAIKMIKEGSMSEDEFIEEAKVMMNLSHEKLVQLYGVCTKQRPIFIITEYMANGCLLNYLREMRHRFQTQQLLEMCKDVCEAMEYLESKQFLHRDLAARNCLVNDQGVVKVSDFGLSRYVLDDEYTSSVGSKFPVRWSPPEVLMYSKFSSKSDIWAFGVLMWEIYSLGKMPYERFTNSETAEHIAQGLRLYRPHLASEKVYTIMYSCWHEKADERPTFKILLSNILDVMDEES

| IC50 | SMILES |
| --- | --- |
| < 10 nM | CN(C)c1ccc2c(c1)CCN(c1cccc(-c3cc(Nc4ccc(C(=O)N5CCOCC5)cn4)c4nccn4n3)c1CO)C2=O [II-1, 6-Dimethylamino-2-(2-hydroxymethyl-3-{8-[5-(morpholine-4-carbonyl)-pyridin-2-ylamino]-imidazo[1,2-b]pyridazin-6-yl}-phenyl)-3,4-dihydro-2H-isoquinolin-1-one] |
| < 10 nM | O=C(c1ccc(Nc2cc(-c3cccc(N4CCc5cc(C6CC6)ccc5C4=O)c3CO)nn3ccnc23)nc1)N1CCOCC1 [II-2, 6-Cyclopropyl-2-(2-hydroxymethyl-3-{8-[5-(morpholine-4-carbonyl)-pyridin-2-ylamino]-imidazo[1,2-b]pyridazin-6-yl}-phenyl)-3,4-dihydro-2H-isoquinolin-1-one] |
| < 10 nM | CN(C)c1ccc2c(c1)CCN(c1cccc(-c3cc(Nc4ccc(C(=O)N5CCOCC5)cn4)c4nccn4c3)c1CO)C2=O [II-4, 6-Dimethylamino-2-(2-hydroxymethyl-3-{8-[5-(morpholine-4-carbonyl)-pyridin-2-ylamino]-imidazo[1,2-a]pyridin-6-yl}-phenyl)-3,4-dihydro-2H-isoquinolin-1-one] |
